Where “and” joins values, the source holds several entries; their conditions need not be identical. Equal entries are not always repeated. Blank lines part the entries; values can stand above or below the compound they belong to.
Legend:
[1] = tested on: amyloid precursor protein (APP) proteolysis; experiment: Repressor Release Assay (RRA); assay type: cell-based; details: luciferase activity over diluent control; for fold induction at 20 µg/mL / fold induction at 10 µg/mL: read-out: APPI Fold Increase; for fold induction at 10 µg/mL: Conc 10 μg/mL
Outline: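 This repressor release assay monitors APP proteolysis in mammalian cells. Transfected CHO-K1 cells (pRSVO-luc plus APP-lacI) were seeded at […], treated with compound diluted in 25 mM Hepes, then incubated 36-48 hours. After replacing media with PBS and adding LucLite lysis/substrate buffer, luminescence was measured, and fold increase over diluent control was calculated.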

melting point: 108 to 110 °C
Compound: O=S(=O)(NC(CO)C1CCSCC1)c1ccc(Cl)s1 (stereo not drawn) [Example 224, 5-Chloro-N-(2-hydroxy-1-tetrahydro-H-thiopyran-4-ylethyl)thiophene-2-sulfonamide]
fold induction at 20 µg/mL ([1]; Conc 20 μg/mL): 7.2

melting point: 95 to 98 °C
Compound: CCC(CC)[C@H](NS(=O)(=O)c1ccc(Cl)s1)C(C)O (stereo partly drawn) [Example 222, 5-Chloro-N-[(S)-2-ethyl-1-(1-hydroxyethyl)butyl]thiophene-2-sulfonamide]
fold induction at 20 µg/mL ([1]; Conc 20 μg/mL): 7.2

Compound: O=S(=O)(N[C@H](CO)C1CCNCC1)c1ccc(Cl)s1 [Example 225, 5-Chloro-N-[(S)-2-hydroxy-1-piperidin-4-ylethyl]thiophene-2-sulfonamide]
fold induction at 20 µg/mL ([1]; Conc 20 μg/mL): 8

Compound: CC[C@H](C)[C@@H](CO)NS(=O)(=O)c1ccco1 [Example 206, N-[(1S,2S)-1-(hydroxymethyl)-2-methylbutyl]-2-furansulfonamide]
fold induction at 20 µg/mL ([1]; Conc 20 μg/mL): 1.8

Compound: 5-bromo-N-{(S,R)-2-hydroxy-1-[(S)-1-methylpropyl]pent-4-enyl}thiophene-2-sulfonamide [Example 195]
APPI Fold Increase ([1]; Conc 20 μg/mL): 4.2 fold and 6.7 fold

Compound: CC[C@H](C)[C@H](NS(=O)(=O)c1cccs1)C(O)c1ccc(OC)cc1 (stereo partly drawn) [Example 149, N-{(S,S)-1-[hydroxy(4-methoxyphenyl)methyl]-2-methylbutyl}thiophene-2-sulfonamide]
fold induction at 10 µg/mL [1]: 1.62

Compound: CCCCCC(O)[C@@H](NS(=O)(=O)c1cccs1)[C@@H](C)CC (stereo partly drawn) [Example 142, N-{(S)-2-hydroxy-1-[(S)-1-methylpropyl]heptyl}thiophene-2-sulfonamide]
fold induction at 10 µg/mL [1]: 3.59

— patent US6878742B2, “Heterocyclic sulfonamide inhibitors of beta amyloid production” (Wyeth, priority 2000, dated 2005)
